In patent US20260184692A1, “HETEROCYCLIC COMPOUNDS, PREPARATION METHODS AND USES THEREOF” (InventisBio Co., Ltd., priority 2022, published 2026):

tested on: OVCAR3 Cells; experiment: OVCAR3 Cell Viability Assay (CellTiter-Glo); format: cell-based; details: Homo sapiens, OVCAR-3, 144 h, 6 days incubation, read-out: OVCAR3 CTG IC50
Description: OVCAR3 Cells (ATCC, Cat #HTB-161) were seeded at a density of 2000 cells/well in a 96-well clear bottom plate (Greiner, Cat #655098) in 100 μL of complete media (RPMI1640+20% FBS+0.01 mg/mL human insulin). One hundred microliter of complete media was added into the blank well (column 1) for low control. Cells were allowed to adhere to the plate overnight in the incubator at 37° C., 5% CO2. On the following day, 0.5 μL of serially-diluted compounds were added to the cells (columns 2-10) and incubated for 6 days at 37 C, 5% CO2 (final 0.5% DMSO concentration); 0.5 μL of DMSO solution was added into the wells (column 11) for high control. Cell viability was detected according to the CellTiter-Glo Luminescent Cell Viability Assay Kit (Promega, Cat #G7573). Luminescence was recorded on the Tecan Spark plate reader. Inhibition rate (IR) of the tested compounds was determined by the following formula: IR (%)=(1−(RLUcompound−RLUlow control)/(RLUhigh control−RLUlow control))×100%. The IC50 value was calculated using the non-linear regression equation: Y=Bottom+(Top−Bottom)/(1+10^((Log IC50−X)×HillSlope)), where X is Log of compound concentration, Y is percent inhibition (IR (%)), Top and Bottom are plateaus in same units as Y.

| SMILES | IC50 |
| --- | --- |
| Cc1cc(NC(=O)c2ccc(NS(=O)(=O)CCO)cc2N2CC3CCC(C2)O3)nc(N2CCC(F)(F)CC2)n1 [Compound 10] | 200 to 2000 nM |
| Cn1cc(N2CC3(CCC4(CC4)CC3)c3cc(NS(=O)(=O)CCO)ccc3C2=O)nc1N1CCC(F)(F)CC1 [Compound 20] | 200 to 2000 nM |
| O=C1c2ccc(NS(=O)(=O)CCO)cc2C2(CCC3(CC3)CC2)CN1c1cccc(OC2CC(F)(F)C2)n1 [Compound 24] | 200 to 2000 nM |
| CC(c1cccc(N2CC3(CCC4(CC4)CC3)c3cc(NS(=O)(=O)CCO)ccc3C2=O)n1)N1CCC(F)(F)C1 (stereo not drawn) [Compound 30] | 200 to 2000 nM |
| O=C1c2ccc(NS(=O)(=O)CCO)cc2C2(CCC3(CC3)CC2)CN1c1ccnc(N2CC(F)(F)C2)n1 [Compound 33] | 200 to 2000 nM |
| Cc1cc(N2CC3(CCC4(CC4)CC3)c3cc(NS(=O)(=O)CCO)ccc3C2=O)nc(N2CCC(F)(F)CC2)n1 [Compound 35] | 200 to 2000 nM |
| O=C1c2ccc(NS(=O)(=O)CCO)cc2C2(CCC3(CC3)CC2)CN1c1csc(N2CCC(F)(F)CC2)n1 [Compound 36] | > 2000 nM |
| CC1CCN(c2nc(N3CC4(CCC5(CC5)CC4)c4cc(NS(=O)(=O)CCO)ccc4C3=O)ccc2F)CC1 [Compound 37] | 200 to 2000 nM |
| O=C1c2cc(F)c(NS(=O)(=O)CCO)cc2C2(CCC3(CC3)CC2)CN1c1ccnc(N2CCC(F)(F)CC2)n1 [Compound 41] | 200 to 2000 nM |
| CN1CCN(c2nc(N3CC4(CCC5(CC5)CC4)c4cc(NS(=O)(=O)CCO)ccc4C3=O)ccc2F)CC1 [Compound 46] | 200 to 2000 nM |
| CN(c1nccc(N2CC3(CCC4(CC4)CC3)c3cc(NS(=O)(=O)CCO)ccc3C2=O)n1)C1CCC(F)(F)C1 (stereo not drawn) [Compound 50] | 200 to 2000 nM |
| CC(c1nc(N2CC3(CCC4(CC4)CC3)c3cc(NS(=O)(=O)CCO)ccc3C2=O)ccc1C#N)N1CC(F)(F)C1 (stereo not drawn) [Compound 55] | > 2000 nM |
| N#Cc1ccc(N2CC3(CCC4(CC4)CC3)c3cc(NS(=O)(=O)CCO)ccc3C2=O)nc1CN1CC(F)(F)C1 [Compound 57] | > 2000 nM |
| O=C1c2ccc(NS(=O)(=O)CCO)cc2C2(CCC3(CC3)CC2)CN1c1cncc(NC2CC(F)(F)C2)n1 [Compound 58] | 200 to 2000 nM |
| N#Cc1ccc(N2CC3(CCC4(CC4)CC3)c3cc(NS(=O)(=O)CCO)cnc3C2=O)nc1N1CCC(F)(F)CC1 [Compound 59] | 200 to 2000 nM |
| O=C1c2ccc(NS(=O)(=O)CCO)cc2C2(CCC3(CC3)CC2)CN1c1ccc2ncn(CC(F)(F)F)c2n1 [Compound 60] | 200 to 2000 nM |
| O=C1c2ccc(NS(=O)(=O)CCO)cc2C2(CCC3(CC3)CC2)CN1c1ccc(F)c(OC2CC(F)(F)C2)n1 [Compound 61] | 200 to 2000 nM |
| O=C1c2ncc(NS(=O)(=O)CCO)cc2C2(CCC3(CC3)CC2)CN1c1ccnc(N2CCC(F)(F)CC2)n1 [Compound 64] | 200 to 2000 nM |
| O=C1c2cc(F)c(NS(=O)(=O)CCO)cc2C2(CCC3(CC3)CC2)CN1c1ccnc(NC2CC(F)(F)C2)n1 [Compound 65] | 200 to 2000 nM |
| O=C1c2ccc(NS(=O)(=O)CCO)cc2C2(CCC(F)(F)CC2)CN1c1ccnc(N2CCC(F)(F)CC2)n1 [Compound 67] | 200 to 2000 nM |

| SMILES | IC50 |
| --- | --- |
| O=C1c2ccc(NS(=O)(=O)CCO)nc2C2(CCC3(CC3)CC2)CN1c1ccnc(N2CCC(F)(F)CC2)n1 [Compound 68] | > 2000 nM |
| N#Cc1ccc(N2CC3(CCC4(CC4)CC3)c3nc(NS(=O)(=O)CCO)ccc3C2=O)nc1N1CCC(F)(F)CC1 [Compound 70] | 200 to 2000 nM |
| O=C1c2ccc(NS(=O)(=O)CCO)cc2C2(CCC(=C(F)F)CC2)CN1c1ccnc(N2CCC(F)(F)CC2)n1 (stereo not drawn) [Compound 77] | 200 to 2000 nM |
| O=C1c2ccc(NS(=O)(=O)CCO)cc2C2(CCC3(CC3)CC2)CN1c1ccnc(N2CC3CCC2C3)n1 (stereo not drawn) [Compound 82] | 200 to 2000 nM |
| O=C1c2ccc(NS(=O)(=O)CCO)cc2C2(CCC3(CC3)CC2)CN1c1ccc(=O)n(CC2CC(F)(F)C2)n1 [Compound 83] | 200 to 2000 nM |
| CC1(CNc2nccc(N3CC4(CCC5(CC5)CC4)c4cc(NS(=O)(=O)CCO)ccc4C3=O)n2)COC1 [Compound 96] | 200 to 2000 nM |
| O=C1c2ccc(NS(=O)(=O)CCO)cc2C2(CCC(F)(F)CC2)CN1c1ccnc(NC2CC(F)(F)C2)n1 [Compound 97] | 200 to 2000 nM |
| CC1(F)CCC2(CC1)CN(c1ccnc(N3CCC(F)(F)CC3)n1)C(=O)c1ccc(NS(=O)(=O)CCO)cc12 (stereo not drawn) [Compound 103] | 200 to 2000 nM |
| CC1(F)CCC2(CC1)CN(c1ccc(C#N)c(N3CCC(F)(F)CC3)n1)C(=O)c1ccc(NS(=O)(=O)CCO)cc12 (stereo not drawn) [Compound 105] | < 200 nM |
| O=C1c2cnc(NS(=O)(=O)CCO)cc2C2(CCC3(CC3)CC2)CN1c1ccc(F)c(N2CCC(F)(F)CC2)n1 [Compound 107] | < 200 nM |
| CC1(F)CCC2(CC1)CN(c1ccc(C#N)c(NC3CC(F)(F)C3)n1)C(=O)c1ccc(NS(=O)(=O)CCO)cc12 (stereo not drawn) [Compound 111] | 200 to 2000 nM |
| CC1(F)CCC2(CC1)CN(c1ccnc(NC3CC(F)(F)C3)n1)C(=O)c1ccc(NS(=O)(=O)CCO)cc12 (stereo not drawn) [Compound 112] | 200 to 2000 nM |
| CC(C)(C)NS(=O)(=O)c1cccc(N2CC3(CCC4(CC4)CC3)c3cc(NS(=O)(=O)CCO)ccc3C2=O)c1 [Compound 113] | < 200 nM |
| N#Cc1ccc(N2CC3(CCC4(CCC4)CC3)c3cc(NS(=O)(=O)CCO)ccc3C2=O)nc1NC1CC(F)(F)C1 [Compound 115] | < 200 nM |
| CCS(=O)(=O)Nc1ccc2c(c1)C1(CCC3(CC3)CC1)CN(c1ccc(C#N)c(S(=O)(=O)N3CC(F)(F)C3)c1)C2=O [Compound 118] | < 200 nM |
| CC(C)(C)NS(=O)(=O)c1cc(N2CC3(CCC4(CC4)CC3)c3cc(NS(=O)(=O)CCO)ccc3C2=O)ccc1C#N [Compound 119] | < 200 nM |
| CC1(C)CCC2(CC1)CN(c1ccc(C#N)c(NC3CC(F)(F)C3)n1)C(=O)c1cc(F)c(NS(=O)(=O)CCO)cc12 [Compound 121] | < 200 nM |
| N#Cc1ccc(N2CC3(CCC4(CC4)CC3)c3cc(NS(=O)(=O)CCO)ccc3C2=O)nc1C(=O)N1CCCC1 [Compound 122] | 200 to 2000 nM |
| O=C1c2ccc(NS(=O)(=O)CCO)cc2C2(CCC3(CCC3)CC2)CN1c1ccnc(NC2CC(F)(F)C2)n1 [Compound 124] | < 200 nM |
| N#Cc1ccc(N2CC3(CCC(F)(F)CC3)c3cc(NS(=O)(=O)CCO)c(F)cc3C2=O)nc1N1CCC(F)(F)CC1 [Compound 126] | < 200 nM |

Other lines, results leading:

| IC50 | SMILES |
| --- | --- |
| < 200 nM | O=C(Nc1ccc2ncn(CC(F)(F)F)c2c1)c1ccc(NS(=O)(=O)CCO)cc1N1CCC2(CC1)CC2 [Compound 2] |
| < 200 nM | Cc1cc(NC(=O)c2ccc(NS(=O)(=O)CCO)cc2N2C[C@H]3CCC[C@H]3C2)nc(N2CCC(F)(F)CC2)n1 [Compound 8] |
| < 200 nM | O=C1c2ccc(NS(=O)(=O)CCO)cc2C2(CCC3(CC3)CC2)CN1c1cccc(CN2CC(F)(F)C2)n1 [Compound 18] |
| < 200 nM | O=C1c2ccc(NS(=O)(=O)CCO)cc2C2(CCC3(CC3)CC2)CN1c1cccc(CN2CCC(F)(F)C2)n1 [Compound 19] |
| < 200 nM | CC1(F)CCN(c2nc(N3CC4(CCC5(CC5)CC4)c4cc(NS(=O)(=O)CCO)ccc4C3=O)ccc2F)CC1 [Compound 40] |
| < 200 nM | O=C1c2ccc(NS(=O)(=O)CCO)cc2C2(CCC3(CC3)CC2)CN1c1ccc(F)c(NC2CC(F)(F)C2)n1 [Compound 42] |
| < 200 nM | O=C1c2ccc(NS(=O)(=O)CCO)cc2C2(CCC3(CC3)CC2)CN1c1ccc(F)c(N2CCCC(F)(F)CC2)n1 [Compound 47] |
| < 200 nM | O=C1c2ccc(NS(=O)(=O)CCO)cc2C2(CCC3(CC3)CC2)CN1c1cccc(NC2CC(F)(F)C2)n1 [Compound 48] |
| < 200 nM | CN(c1nc(N2CC3(CCC4(CC4)CC3)c3cc(NS(=O)(=O)CCO)ccc3C2=O)ccc1C#N)C1CC(F)(F)C1 [Compound 49] |
| < 200 nM | Cc1ccc(N2CC3(CCC4(CC4)CC3)c3cc(NS(=O)(=O)CCO)ccc3C2=O)nc1N1CCC(F)(F)CC1 [Compound 52] |
| < 200 nM | O=C1c2ccc(NS(=O)(=O)CCO)cc2C2(CCC3(CC3)CC2)CN1c1cncc(N2CCC(F)(F)CC2)n1 [Compound 54] |
| < 200 nM | CC1CN(c2nc(N3CC4(CCC5(CC5)CC4)c4cc(NS(=O)(=O)CCO)ccc4C3=O)ccc2C#N)CCO1 (stereo not drawn) [Compound 63] |
| < 200 nM | O=C1c2ccc(NS(=O)(=O)CCO)cc2C2(CCC3(CC3)CC2)CN1c1ccnc(NC2CCCC2)n1 [Compound 66] |
| < 200 nM | Cc1ncc(N2CC3(CCC4(CC4)CC3)c3cc(NS(=O)(=O)CCO)ccc3C2=O)nc1N1CCC(F)(F)CC1 [Compound 73] |
| < 200 nM | CC1(C)CCC2(CC1)CN(c1ccnc(NC3CC(F)(F)C3)n1)C(=O)c1ccc(NS(=O)(=O)CCO)cc12 [Compound 74] |
| < 200 nM | N#Cc1ccc(N2CC3(CCC(F)(F)CC3)c3cc(NS(=O)(=O)CCO)ccc3C2=O)nc1N1CCC(F)(F)CC1 [Compound 78] |
| < 200 nM | O=C1c2ccc(NS(=O)(=O)CCO)cc2C2(CCC3(CC3)CC2)CN1c1ccnc(NCCC(F)(F)F)n1 [Compound 84] |
| < 200 nM | N#Cc1ccc(N2CC3(CCC4(CC4)CC3)c3cc(NS(=O)(=O)CCO)ccc3C2=O)nc1NCCC(F)(F)F [Compound 93] |
| < 200 nM | N#Cc1ccc(N2CC3(CCC4(CC4)CC3)c3cc(NS(=O)(=O)CCO)ccc3C2=O)nc1S(=O)(=O)C1CCCC1 [Compound 100] |
| < 200 nM | N#Cc1ccc(N2CC3(CCC(F)(F)CC3)c3cc(NS(=O)(=O)CCO)ccc3C2=O)nc1NC1CC(F)(F)C1 [Compound 104] |
